Legend:
[1] = tested on: HeLa; assay: Selectivity ratio of IC50 for drug to SAHA against human HDAC in HeLa cell nuclear extract; type: cell-based
[2] = target: Histone deacetylase (Homo sapiens) (UniProt Q13547+O15379+Q9UBN7+Q92769+Q9UQL6+Q8WUI4+Q9BY41+Q96DB2+P56524+Q9UKV0+Q969S8); details: HeLa, at 50 nM
Description: Inhibition of human HDAC in human HeLa cell nuclear extract at 50 nM after 15 mins by colorimetric assay

[3] = target: Histone deacetylase; assay: Inhibition of human HDAC in human HeLa cell nuclear extract after 15 mins by colorimetric assay; type: cell-based

Row | Compound | Ratio IC50 [1] | inhibition [2] | IC50 [3]
1 | O=C(CCCCC[Se][Se]CCCCCC(=O)Nc1ccccc1)Nc1ccccc1 | > 20 | 81% | –
2 | N#C[Se]CCCCCC(=O)Nc1ccccc1 | 20 | 95% | 8.9 nM

— ChEMBL document CHEMBL1155391, “SelSA, selenium analogs of SAHA as potent histone deacetylase inhibitors” (Bioorg Med Chem Lett, 2010)
